In patent US11950594B2, “Methods and compositions for inhibiting formation of biofilms” (INSTITUTE OF MICROBIOLOGY, CHINESE ACADEMY OF SCIENCES, priority 2019, dated 2024):

Legend:
PAO1 strains = assay: Bacterial motility assay, swimming plate; assay type: cell-based, Pseudomonas aeruginosa; details: 37° C., 24 hours
Method: PAO1 strains were inoculated into a LBNS agar plate and were cultured overnight at 37° C. Single colonies were respectively inoculated on the surface of swimming plates with and without the coumarin-chalcone compound C9, and cultured at 37° C. for 24 hours. Then, a diameter of a translucent area formed by bacterial swimming on each swimming plate was measured.

pKa by HCl/KOH titration = assay type: physicochemical; details: titration with HCl (25 mM) and KOH (25 mM)
Method: UV-Vis spectral analysis was used to study the stability of the coumarin-chalcone compound C9 at a pH range of 3.4 to 8.4. […] After reaching pH=2, KOH (25 mM) was added slowly until the pH reached 12. In this way, a graph of a relationship between the pH and the volume of KOH added was plotted to find an equivalent point and thus the pKa.

[1] = system: Staphylococcus aureus biofilm; assay: 96-well plate crystal violet biofilm detection; assay type: cell-based; details: FIG. 11
Method: 1% inoculation amount of the bacterial solution cultured overnight was inoculated into 100 μL Jensen liquid medium. Different equal amounts of bacteria solution with C1 to C12, respectively, or without any additional substance were cultured in a 96-well polyvinyl chloride (PVC) plate (costar) overnight at 30° C. without agitation.
The bacterial biomass adsorbed on the 96-well PVC plate was detected by a crystal violet method, and steps were described as below. (1) The non-attached bacteria were removed using a pipettor, then the wells were gently rinsed with normal saline for 3 times. (2) A volume of 120 μL 0.1% crystal violet solution was added to stain the firmly attached bacterial cells in each well, which then staying static at room temperature for 30 min. (3) The PVC plate was taken out, the crystal violet solution was removed with a pipettor, and the non-attached crystal violet solution was washed with normal saline. (4) The crystal violet attached onto the PVC plate was dissolved with 200 μL of 30% acetic acid solution. The OD value of the acetic acid solution in each well was measured at 560 nm with a spectrophotometer.
FIG. 11 is a schematic diagram illustrating an inhibiting effect of a coumarin-chalcone compound C9 on Staphylococcus aureus and Escherichia coli biofilms. […]

Pseudomonas aeruginosa [2] = assay: Antibiotic susceptibility, filter paper method (inhibition area); assay type: cell-based; details: C9 5 mM in culture medium, versus control group
Method: In the experiment, the coumarin-chalcone compound C9 (5 mM) was added to a culture medium, and an inhibition area of the corresponding antibiotics was measured by a conventional filter paper method.

Pseudomonas aeruginosa [3] = assay: MIC of antibiotics, Calgary biofilm device; assay type: cell-based; details: treated with C9 5 mM, versus untreated group
Method: MIC and MBEC values of a biofilm formed on a peg of a […] biofilm device (CGM and CBD) treated with the coumarin-chalcone compound C9 were measured according to methods (Innovotech) in MBECTM high throughput experimental operation manual. Biofilm treated with the coumarin-chalcone compound C9 (5 mM) was cultured in an antibiotic-containing medium in a 96-well plate for 24 h, and the MIC value was obtained by measuring the OD600 of planktonic cells of the above samples. To determine the MBEC value, the biofilm treated with the coumarin-chalcone compound C9 (5 mM) was cultured in an antibiotic-containing medium in a 96-well plate for 24 h, then the biofilm was ultrasonically crushed and subsequently incubated at 37° C. for another 24 hours. Biomass of newly formed biofilms was recorded to indicate the corresponding MBEC value.

COc1cccc(/C=C/C(=O)c2cc3ccccc3oc2=O)c1 [Compound C9]
flagellate-mediated swimming ability (PAO1 strains): no effect
pKa (pKa by HCl/KOH titration): 5.66
reduction of Staphylococcus aureus biofilm [1]: 30%
susceptibility of Pseudomonas aeruginosa to fluoroquinolone antibiotics (CIP) (Pseudomonas aeruginosa [2]): significantly higher
MIC of a biofilm against ciprofloxacin (Pseudomonas aeruginosa [3]): significantly lower
MIC of a biofilm against tobramycin (Pseudomonas aeruginosa [3]): significantly lower
